Data: ChEMBL document CHEMBL1133260, “Synthesis and evaluation of aza HUN-7293” (Bioorg Med Chem Lett, 2000)
*1 amine or outer side, *2 acyl side, *3 side chain or, on linkers, in order; H or OH if unused. Where a SMILES comes first, the peptide text is derived from it. [ ]: non-standard residue; d: D form. NMeTrp(1-OMe) = CN[C@@H](Cc1cn(OC)c2ccccc12)C(=O)O; Butanoyl(2R-oxy,4-CN) = N#CCC[C@@H](O)C(=O)O; X1 = CCCC[C@@H](C)C[C@H](N[*:1])C(=O)[*:2]; NMeL = CN[C@@H](CC(C)C)C(=O)O; NMeA = CN[C@@H](C)C(=O)O

Key:
Assay type in all cases: functional, cell-based
HUVEC [1] = assay: The compound was tested for the ability to inhibit inducible cell adhesion molecule expression (VCAM-1) in primary human endothelial cell line (HUVEC)
HUVEC [2] = assay: The compound was tested for the ability to inhibit inducible cell adhesion molecule expression (E-selectin) in primary human endothelial cell line (HUVEC)
HMEC [3] = assay: The compound was tested for the ability to inhibit inducible cell adhesion molecule expression (VCAM-1) in primary human micro vascular cell line (HMEC-1)
HUVEC [4] = assay: The compound was tested for the ability to inhibit inducible cell adhesion molecule expression (ICAM-1) in primary human endothelial cell line (HUVEC)
HMEC [5] = assay: The compound was tested for the ability to inhibit inducible cell adhesion molecule expression (ICAM-1) in primary human micro vascular cell line (HMEC-1)
HMEC [6] = assay: The compound (derived from natural HUN-7293) was tested for the ability to inhibit inducible cell adhesion molecule expression (VCAM-1) in primary human micro vascular cell line (HMEC-1)
HUVEC [7] = assay: The compound (derived from natural HUN-7293) was tested for the ability to inhibit inducible cell adhesion molecule expression (ICAM-1) in primary human endothelial cell line (HUVEC)
HUVEC [8] = assay: The compound (synthetic) was tested for the ability to inhibit inducible cell adhesion molecule expression (ICAM-1) in primary human endothelial cell line (HUVEC)
HUVEC [9] = assay: The compound (synthetic) was tested for the ability to inhibit inducible cell adhesion molecule expression (E-selectin) in primary human endothelial cell line (HUVEC)
HUVEC [10] = assay: The compound (derived from natural HUN-7293) was tested for the ability to inhibit inducible cell adhesion molecule expression (E-selectin) in primary human endothelial cell line (HUVEC)
HMEC [11] = assay: The compound (synthetic) was tested for the ability to inhibit inducible cell adhesion molecule expression (VCAM-1) in primary human micro vascular cell line (HMEC-1)
HUVEC [12] = assay: The compound (derived from natural HUN-7293) was tested for the ability to inhibit inducible cell adhesion molecule expression (VCAM-1) in primary human endothelial cell line (HUVEC)
HMEC [13] = assay: The compound (derived from natural HUN-7293) was tested for the ability to inhibit inducible cell adhesion molecule expression (ICAM-1) in primary human micro vascular cell line (HMEC-1)
HUVEC [14] = assay: The compound (synthetic) was tested for the ability to inhibit inducible cell adhesion molecule expression (VCAM-1) in primary human endothelial cell line (HUVEC)

IC50 (HMEC [3]) [nM] | IC50 (HMEC [5]) [nM] | IC50 (HMEC [6]) [nM] | IC50 (HMEC [11]) [nM] | IC50 (HMEC [13]) [nM] | SMILES | IC50 (HUVEC [1]) [nM] | IC50 (HUVEC [2]) [nM] | IC50 (HUVEC [4]) [nM] | IC50 (HUVEC [7]) [nM] | IC50 (HUVEC [8]) [nM] | IC50 (HUVEC [9]) [nM] | IC50 (HUVEC [10]) [nM] | IC50 (HUVEC [12]) [nM] | IC50 (HUVEC [14]) [nM]
550 | > 3000 |  |  |  | CCCC[C@@H](C)C[C@@H]1NC(=O)[C@@H](CCC#N)NC(=O)[C@H](C)N(C)C(=O)[C@H](C[C@H](C)CCCC)NC(=O)[C@H](Cc2cn(OC)c3ccccc23)N(C)C(=O)[C@H](CC(C)C)NC(=O)[C@@H](CC(C)C)N(C)C1=O | 560 | > 10000 | > 3000 |  |  |  |  |  | 
 |  | 22 | 58 | 540 | CCCC[C@@H](C)C[C@@H]1NC(=O)[C@H](Cc2cn(OC)c3ccccc23)N(C)C(=O)[C@H](CC(C)C)NC(=O)[C@H](CC(C)C)N(C)C(=O)[C@H](C[C@H](C)CCCC)NC(=O)[C@@H](CCC#N)NC(=O)[C@H](C)N(C)C1=O |  |  |  | 540 | 950 | 1000 | 540 | 33 | 64
1 | 24 |  |  |  | CCCC[C@@H](C)C[C@@H]1NC(=O)[C@H](Cc2cn(OC)c3ccccc23)N(C)C(=O)[C@H](CC(C)C)NC(=O)[C@H](CC(C)C)N(C)C(=O)[C@H](C[C@H](C)CCCC)NC(=O)[C@@H](CCC#N)OC(=O)[C@H](C)N(C)C1=O (cyclo(L[NMeTrp(1-OMe)][X1][NMeA][Butanoyl(2R-oxy,4-CN)][X1][NMeL])) | 3 | 44 | 26 |  |  |  |  |  | 
